# How the values were obtained:
# [1] = test system: NCl/ADR (breast adenocarcinoma); assay: Cell viability (cell proliferation assay), NCl/ADR; type: cell-based; settings: 48 to 72 hr exposure
# Procedure: (§1) HEK293 cells were seeded into each well of a 96-well plate (5000 cells/well) and incubated overnight to allow the cells to attach. The culture media was removed and replaced with 100 μl of phenol red-free media containing the compounds 5a, 5a,b, and 9a at various concentrations. The cells were allowed to grow in the presence of the compounds for 48 hrs. At the end of the treatment, 20 μl of CellTiter 96 Aqueous One Solution reagent was added directly into each well, and the cells were incubated at 37° C. for 2 hrs. This reagent converts to a form that absorbs light at 490 nm by living cells. Thus, absorbance at 490 nm is proportional to the number of viable cells. The 490 nm absorbance was measured on a BioRad plate reader. Control wells containing no cells were included in this assay to correct for background absorbance.
# (§2) The effect of compound 9a on the viability of cancer cell lines as well as dividing and non-dividing mouse Swiss3T3 cells was studied.
# (§3) In particular, the cell proliferation assay, as described in Example 15, was used to test the effect of a 48 to 72 hr exposure of these cell lines to compound 9a at various concentrations.
# [2] = test system: A549 (non-small cell lung carcinoma); assay: Cell viability (cell proliferation assay), A549; type: cell-based; settings: Homo sapiens, 48 to 72 hr exposure
# Procedure: as §1, §2, §3
# [3] = test system: HT29 (colorectal adenocarcinoma); assay: Cell viability (cell proliferation assay), HT29; type: cell-based; settings: Homo sapiens, HT-29, 48 to 72 hr exposure
# Procedure: as §1, §2, §3
# [4] = test system: PC3 (prostate adenocarcinoma); assay: Cell viability (cell proliferation assay), PC3; type: cell-based; settings: 48 to 72 hr exposure
# Procedure: as §1, §2, §3
# [5] = test system: HCT15 (colorectal adenocarcinoma); assay: Cell viability (cell proliferation assay), HCT15; type: cell-based; settings: Homo sapiens, HCT-15, 48 to 72 hr exposure
# Procedure: as §1, §2, §3
# [6] = test system: SW480 (colorectal adenocarcinoma); assay: Cell viability (cell proliferation assay), SW480; type: cell-based; settings: Homo sapiens, 48 to 72 hr exposure
# Procedure: as §1, §2, §3
# [7] = test system: HOP-18 (non-small cell lung carcinoma); assay: Cell viability (cell proliferation assay), HOP-18; type: cell-based; settings: Homo sapiens, 48 to 72 hr exposure
# Procedure: as §1, §2, §3
# [8] = test system: OVCAR-4 (ovarian adenocarcinoma); assay: Cell viability (cell proliferation assay), OVCAR-4; type: cell-based; settings: Homo sapiens, 48 to 72 hr exposure
# Procedure: as §1, §2, §3
# [9] = test system: Swiss 3T3 dividing fibroblast; assay: Cell viability (cell proliferation assay), dividing Swiss 3T3; type: cell-based; settings: Mus musculus, 48 to 72 hr exposure
# Procedure: as §1, §2, §3
# [10] = test system: Swiss 3T3 non-dividing fibroblast; assay: Cell viability (cell proliferation assay), non-dividing Swiss 3T3; type: cell-based, mouse
# Procedure: as §1, §2, §3
# [11] = test system: HTS-tubulin (90% tubulin plus 10% microtubule associated proteins); assay: Microtubule polymerization assay (turbidity at 340 nm); type: biochemical; settings: absorbance at 340 nm, 30 minutes, 37° C., FIG. 3
# Procedure: Microtubule polymerization assays were performed to determine if compounds, such as compound 9a, cause G2/M cell cycle arrest by affecting microtubule dynamics. A microtubule polymerization assay was performed that takes advantage of the observation that there is an increase in turbidity that can be measured at 340 nm as tubulin heterodimers polymerize to form microtubules. In brief, HTS-tubulin (90% tubulin plus 10% microtubule associated proteins; Cytoskeleton Inc., Denver, Colo.) was resuspended in G-PEM buffer (80 mM Pipes, pH 6.9; 2 mM MgCl2; 0.5 mM EDTA; 1 mM GTP) to 10 mg/ml. This suspension was clarified by centrifugation for 10 min. at 225,000×g. The supernatant was then diluted with G-PEM buffer to 2 mg/ml and 100 μl of this solution was added to the appropriate number of ½-area wells in a 96-well format (Corning). Each compound (10 μl of a 10× final concentration in 10% DMSO) was added to the wells in duplicate and immediately put into a pre-warmed (37° C.) Spectromax 190 plate reader. The absorbance was read at 340 nm immediately (time=0) and every minute thereafter for 30 minutes.
# The tubulin mix was incubated in the presence of paclitaxel (a microtubule stabilizing agent), nocodazole (a microtubule destabilizing agent), vehicle control (DMSO), or varying concentrations of compound 9a (FIG. 3).
smiles,measurement,setting,value
"COc1ccc2c(c1N)C(=O)O[C@@H]2[C@H]1c2c(cc3c(c2OC)OCO3)CCN1C [Compound 9a, 7-amino-6-methoxy-3-(4-methoxy-6-methyl-5,6,7,8-tetrahydro-[1,3]dioxolo[4,5-g]isoquinolin-5-yl)-3H-isobenzofuran-1-one]",EC50,[1],< 50 nM
same,EC50,[2],< 100 nM
same,EC50,[3],< 100 nM
same,EC50,[4],< 100 nM
same,EC50,[5],< 100 nM
same,EC50,[6],< 100 nM
same,EC50,[7],< 100 nM
same,EC50,[8],< 100 nM
same,EC50,[9],< 100 nM
same,EC50,"[10]; Mus musculus, Swiss 3T3 non-dividing fibroblast, 48 to 72 hr exposure",> 50000 nM
same,effect on viability,"[10]; non-dividing Swiss 3T3 fibroblasts, even at 50 μM",no effect was observed
same,effect on microtubule polymerization,[11],dose-dependent decrease of microtubule polymerization
